Reference: PMC7956626, “Phenylalanine-Derived β-Lactam TRPM8 Modulators. Configuration Effect on the Antagonist Activity” (International Journal of Molecular Sciences, 2021)
“Also recorded” adds a separate entry of the source.

What was measured:
hTRPA1 = molecular target: T1, hTRPA1 (Homo sapiens, UniProt O75762); assay: Ca2+ influx assay, TRPA1 selectivity; type: cell-based; conditions: compound 50 μM; read-out: % TRPA1 Blockade at 50 μM
T1 construct: expressed in transfected cells
Text: (§1) Because some molecular cross-recognition may occur within thermoTRP members, we evaluated the effect of compounds 14 and 16 on recombinantly expressed hTRPV1 and hTRPA1 channels. Data shown in Table 2 indicate that these β–lactam derivatives marginally cross-reacted with these channels, thus substantiating that they are potent and selective inhibitors of TRPM8.

rat TRPM8 [1] = molecular target: T2, rat TRPM8 (Rattus norvegicus, UniProt Q8R455); assay: Ca2+ intracellular influx assay (calcium microfluorimetry), menthol-induced; type: cell-based; conditions: 100 μM menthol; for % Blockade 5 μM: compound 5 μM; for % Blockade 5 μM / % Blockade 50 μM / IC50: HEK-rTRPM8; for Menthol-induced fluorescent signal: compound 10 μM, representative graph Figure A1; for % Blockade 50 μM: compound 50 μM
T2 construct: expressed in transfected cells; host or cells: HEK293 (human embryonic kidney), stably transfected
Procedure: The four obtained diastereomeric compounds were evaluated for their ability to inhibit menthol-induced Ca^2+ intracellular influx into the cytosol on HEK293 cells heterologously expressing rat TRPM8. The well-known TRPM8 antagonist N-(3-aminopropyl)-2-[(3-methylphenyl)methoxy]-N-(2-thienylmethyl)-benzamide (AMTB) was used as control. Some representative graphs for compound 14 and 16 at 10 μM on HEK-rTRPM8 cells are included in Figure A1.
Compounds were evaluated for their activity against rTRPM8 using microfluorometry based calcium flux assays with Fluo-4 NW Ca^2+ dye and fluorescence were measured at excitation wavelength of 485 nm and emission wavelength of 520 nm using POLASTAR plate reader (BMG Labtech). Briefly human embryonic kidney cell line (HEK) stably transfected with rTRPM8 were seeded in 96-well plates at a cell density of 30,000 cells and 2 days before the medium was replaced with 100 μL of the dye loading solution Fluo-4 NW supplemented with probenecid 2.5 mM. After 1 h incubation at 37 °C, plates were transferred to the plate reader and the baseline fluorescence was recorded for 3 cycles before the addition of vehicle, compound at different concentrations and the antagonist, 10 μM AMTB for TRPM8. Fluorescence intensity was recorded during 7 more cycles and the agonist was added, 100 μM menthol. Fluorescence intensity was recorded during 10 more cycles.
Data analysis: the fluorescence values obtained for each compound concentration were normalized to that prompted by the control agonist (100 μM menthol). Decrease in menthol signal was expressed as percentage of inhibition (%). All data are expressed as the mean ± standard deviation (SD). Each condition was assessed in triplicate (n = 3) in 3 independent experiments (N = 3). The Z-factor was calculated in each assay using the following equation: […]. In all the experiments, the Z-factor was ≥ 0.5. To calculate IC50, normalized responses (%) versus log (μM) were adjusted to a non-linear fit with variable slope, a four-parameter dose–response curve following curve Y = 100/(1 + 10^((Log IC50-X) × HillSlope)) where […].

rat TRPM8 [2] = molecular target: T2, rat TRPM8; assay: Whole-cell patch-clamp in HEK293 cells expressing rat TRPM8; type: cell-based; conditions: 100 μM menthol; for % Blockade at 10 μM: compound 10 μM, whole cell; for IC50: holding potential −60 mV
Procedure: In the electrophysiology assay, both compounds at 10 μM concentration were able to block TRPM8-mediated responses induced by menthol (Figure 2 and Figure A2, Table 3). […] After 10 μM of 14 was applied (Figure 2A, red), an important decrease on the menthol-induced TRPM8 activity at depolarizing voltages was observed. A similar behavior was detected after application of diastereomeric β–lactam 16 (Figure 2B). The dose–response curves for both compounds were obtained at a holding potential of −60 mV (Figure 2). The measured IC50 values were 0.9 ± 1.0 μM for 14 (Figure 2C) and 0.05 ± 1.3 μM for 16 (Figure 2D).
Whole-cell patch-clamp recordings from HEK-rTRPM8 cells were carried out 2 days after seeding on 12-mm Ø glass coverslips treated with poly-L-lysine solution (Sigma Aldrich, Spain); the intracellular pipette solution contained (in mM) 150 NaCl, 5 EGTA, 3 MgCl2 and 10 HEPES, adjusted to pH 7.2 with NaOH, and the extracellular solution contained (in mM) 150 NaCl, 6 CsCl, 1.5 CaCl2, 1 MgCl2, 10 D-glucose and 10 HEPES, adjusted to pH 7.4 with NaOH. The TRPM8 activity was measured by the application of two pulses of 100 μM menthol in a time interval of 2 min and a 30-s perfusion of the different compound concentrations before the second menthol pulse.
(§2) Data were sampled at 10 kHz (EPC10 amplifier with PatchMaster 2.53 software, HEKA Electronics, Lambrecht, Germany) and low-pass filtered at 3 kHz for analysis (PatchMaster 2.53 and GraphPad Prism 5, Graphpad Software, USA). The series resistance was <10 MΩ and to minimize voltage errors was compensated to 60–80%. All measurements were performed at 24–25 °C. Cell capacitance was measured and used to estimate the current density (J, pA/pF).
Data analysis: Results are expressed as the percentage of remaining activation of the TRPM8 channel. This is calculated by normalizing the ratio (p2/p1) of testing conditions to the ratio (p2/p1) of the control condition. Analysis of the data was performed by GraphPad 6.0, the Ordinary One-Way ANOVA analysis followed by the post hoc Bonferroni test stablished multiple comparisons and the ROUT method (Q = 10%) identified data outliers. A non-linear regression curve and IC50 were obtained by the representation of log (inhibitor) vs. response. All data are expressed as the mean ± standard error of the mean (SEM) (n = 5–8).

hTRPV1 = molecular target: T3, hTRPV1 (Homo sapiens, UniProt Q8NER1); assay: Ca2+ influx assay, TRPV1 selectivity; type: cell-based; conditions: compound 50 μM; read-out: % TRPV1 Blockade at 50 μM
T3 construct: expressed in transfected cells
Text: as §1

rat DRG sensory neurons = assay: Current-clamp resting membrane potential of DRG sensory neurons; type: cell-based; conditions: compound 10 μM, t-test ns
Procedure: Next, we investigated the effect of the membrane of rat DRG sensory neurons. […] Sensory neurons were functional as evidenced by action potentials fired exposed to 100 μM menthol (Figure 3A, top trace).
Current-Clamp recordings from rat DRGs were carried out 24–48 h after seeding on 12-mm Ø glass coverslips treated with poly-L-lysine solution and Laminin (Sigma Aldrich). The intracellular pipette solution contained (in mM): 4 NaCl, 126 K gluconate, 0.02 CaCl2, 1 MgSO4, 5 HEPES, 15 glucose, 3 ATP, 0.1 GTP and 5 EGTA, pH 7.2 with KOH. The extracellular solution contained (in mM): 140 NaCl, 4 KCl, 2 CaCl2, 2 MgCl2, 10 HEPES, 5 glucose and 20 mannitol, pH 7.4 with NaOH. The membrane potential was measured in the absence and the presence of compounds 14 and 16 at 10 μM in a time interval of 1 min.
as §2

rat DRG neurons = assay: Microelectrode array, KCl-evoked action potentials in DRG neurons; type: cell-based; conditions: compound 10 μM; 40 mM KCl
Text: To further interrogate β–lactam derivatives’ action on the excitability of DRG neurons we next used microelectrode arrays (MEA). This technology records the electrogenic activity of neural populations that are located near to an electrode, but it cannot differentiate the number of neurons or other cells contributing to it. We used MEA chips with 60 electrodes and monitored the electrical activity at each electrode to measure if the potent inhibitory effect of β–lactam derivatives act on voltage-gated Na^+ and K^+ channels present in neurons and responsible for action potential propagation. Neurons isolated from neonatal rat dorsal root ganglions (DRG) were cultured on MEA chambers. The experimental paradigm consisted in applying a first 15-s pulse (P1) of 40 mM KCl, to evoke action potentials. […]
Data analysis: Data were analyzed using an MC_RACK spike sorter with a sample rate of 25 kHz and a Butterworth high-pass 2nd order filter applied with 200 Hz cutoff. […] Spiking activity was measured in a temporal interval of 30 s, starting right after instillation of the activating stimuli. […] The recorded signals were then processed to extract mean spike frequency for each pulse (P1–P2). Then, the ratio P2/P1 of mean spike frequency was calculated and normalized to vehicle for comparing the different conditions used.

TRPM8 = tested on: TRPM8; design: method as in PMID 25893043, PMID 30148953; conditions: healthy volunteers and migraneous patients, respectively; ref [35],[36]; cited from earlier work
four tumor cell lines = tested on: four tumor cell lines; design: method as in PMID 32843690; conditions: non-selective, ref [41]; cited from earlier work
[3] = tested on: oxaliplatin-induced allodynia; design: method as in PMID 32843690; conditions: mice; from 15 to up to 60 min; ref [41]; cited from earlier work
rat TRPM8 [4] = molecular target: T2, rat TRPM8; design: method as in PMID 32843690; conditions: ref [41]; cited from earlier work

T1 sequence (O75762 whole entry): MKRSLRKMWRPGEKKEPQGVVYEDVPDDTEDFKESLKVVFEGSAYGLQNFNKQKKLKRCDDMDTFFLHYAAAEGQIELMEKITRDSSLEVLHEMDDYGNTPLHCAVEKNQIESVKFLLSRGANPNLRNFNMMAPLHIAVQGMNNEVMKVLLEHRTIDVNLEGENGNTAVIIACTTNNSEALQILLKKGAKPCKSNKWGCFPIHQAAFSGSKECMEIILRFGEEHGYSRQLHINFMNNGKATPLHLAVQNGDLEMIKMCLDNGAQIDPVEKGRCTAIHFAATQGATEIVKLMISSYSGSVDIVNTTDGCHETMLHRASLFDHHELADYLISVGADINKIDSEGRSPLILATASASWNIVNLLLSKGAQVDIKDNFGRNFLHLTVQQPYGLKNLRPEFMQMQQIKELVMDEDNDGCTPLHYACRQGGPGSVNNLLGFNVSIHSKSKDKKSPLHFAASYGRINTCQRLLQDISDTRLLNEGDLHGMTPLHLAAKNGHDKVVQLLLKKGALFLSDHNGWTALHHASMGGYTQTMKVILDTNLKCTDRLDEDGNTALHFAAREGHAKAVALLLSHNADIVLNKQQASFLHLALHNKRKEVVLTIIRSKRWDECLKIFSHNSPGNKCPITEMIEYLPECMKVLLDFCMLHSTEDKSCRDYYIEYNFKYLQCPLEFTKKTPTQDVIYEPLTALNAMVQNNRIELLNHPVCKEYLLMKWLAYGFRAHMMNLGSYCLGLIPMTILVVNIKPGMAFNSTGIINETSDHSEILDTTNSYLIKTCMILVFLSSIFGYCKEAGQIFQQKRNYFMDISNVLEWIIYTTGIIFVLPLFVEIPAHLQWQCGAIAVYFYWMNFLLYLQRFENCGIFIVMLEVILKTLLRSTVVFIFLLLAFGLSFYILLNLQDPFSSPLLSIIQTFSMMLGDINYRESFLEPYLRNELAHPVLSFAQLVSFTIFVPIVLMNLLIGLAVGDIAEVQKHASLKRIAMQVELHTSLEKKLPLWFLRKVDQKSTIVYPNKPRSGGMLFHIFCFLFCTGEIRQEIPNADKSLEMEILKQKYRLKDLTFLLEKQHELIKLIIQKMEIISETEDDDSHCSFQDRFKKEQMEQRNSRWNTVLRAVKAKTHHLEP
T2 sequence (Q8R455 whole entry): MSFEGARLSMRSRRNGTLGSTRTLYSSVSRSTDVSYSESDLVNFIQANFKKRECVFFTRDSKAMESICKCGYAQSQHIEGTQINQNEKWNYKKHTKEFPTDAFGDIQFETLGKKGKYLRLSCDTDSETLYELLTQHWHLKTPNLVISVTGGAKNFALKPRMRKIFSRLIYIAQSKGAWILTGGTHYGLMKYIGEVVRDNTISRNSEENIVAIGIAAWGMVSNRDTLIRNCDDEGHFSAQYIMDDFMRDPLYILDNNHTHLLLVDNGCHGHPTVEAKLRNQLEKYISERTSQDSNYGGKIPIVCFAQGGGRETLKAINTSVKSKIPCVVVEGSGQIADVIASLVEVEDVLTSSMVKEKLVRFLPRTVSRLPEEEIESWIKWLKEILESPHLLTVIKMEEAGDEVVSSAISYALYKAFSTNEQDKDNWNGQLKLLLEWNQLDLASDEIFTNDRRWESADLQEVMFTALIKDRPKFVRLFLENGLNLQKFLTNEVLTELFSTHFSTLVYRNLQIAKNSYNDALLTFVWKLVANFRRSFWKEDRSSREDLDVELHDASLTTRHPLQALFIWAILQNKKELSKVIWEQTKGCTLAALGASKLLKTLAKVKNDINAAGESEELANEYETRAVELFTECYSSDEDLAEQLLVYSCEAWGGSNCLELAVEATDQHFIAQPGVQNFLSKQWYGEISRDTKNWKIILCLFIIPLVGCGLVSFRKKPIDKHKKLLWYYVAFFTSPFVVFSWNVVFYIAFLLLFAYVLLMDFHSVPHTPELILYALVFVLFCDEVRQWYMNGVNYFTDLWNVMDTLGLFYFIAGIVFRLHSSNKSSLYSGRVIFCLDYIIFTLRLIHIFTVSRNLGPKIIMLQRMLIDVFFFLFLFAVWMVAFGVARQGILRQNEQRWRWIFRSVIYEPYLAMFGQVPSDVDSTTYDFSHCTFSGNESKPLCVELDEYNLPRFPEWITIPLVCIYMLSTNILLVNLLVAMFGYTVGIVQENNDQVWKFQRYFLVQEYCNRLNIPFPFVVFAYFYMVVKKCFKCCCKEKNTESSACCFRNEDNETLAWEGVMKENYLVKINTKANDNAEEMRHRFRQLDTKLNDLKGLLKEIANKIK
T3 sequence (Q8NER1 whole entry): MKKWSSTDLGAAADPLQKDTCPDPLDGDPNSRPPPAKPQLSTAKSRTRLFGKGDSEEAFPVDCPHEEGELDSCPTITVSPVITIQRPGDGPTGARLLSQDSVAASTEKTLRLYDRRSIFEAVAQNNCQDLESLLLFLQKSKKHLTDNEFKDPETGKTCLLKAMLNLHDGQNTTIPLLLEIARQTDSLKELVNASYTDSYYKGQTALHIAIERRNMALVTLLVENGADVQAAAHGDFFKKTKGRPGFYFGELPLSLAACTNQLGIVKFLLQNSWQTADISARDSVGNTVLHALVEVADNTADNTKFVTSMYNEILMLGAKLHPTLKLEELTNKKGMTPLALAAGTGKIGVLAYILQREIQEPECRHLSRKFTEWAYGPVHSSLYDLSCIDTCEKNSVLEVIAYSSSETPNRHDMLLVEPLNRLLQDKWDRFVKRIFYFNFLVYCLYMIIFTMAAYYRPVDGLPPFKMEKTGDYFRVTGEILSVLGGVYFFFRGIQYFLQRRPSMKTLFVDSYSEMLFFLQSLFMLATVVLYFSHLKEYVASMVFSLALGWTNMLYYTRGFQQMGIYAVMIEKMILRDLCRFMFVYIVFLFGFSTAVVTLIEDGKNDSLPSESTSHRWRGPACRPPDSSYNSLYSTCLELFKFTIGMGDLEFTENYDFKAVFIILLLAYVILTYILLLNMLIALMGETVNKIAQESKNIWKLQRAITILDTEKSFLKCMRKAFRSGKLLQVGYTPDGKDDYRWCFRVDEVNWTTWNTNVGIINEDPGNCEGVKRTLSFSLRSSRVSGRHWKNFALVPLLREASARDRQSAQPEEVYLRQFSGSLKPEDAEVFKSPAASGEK

| SMILES | inhibition at 50 µM (hTRPA1) | % Blockade 5 μM (rat TRPM8 [1]) | Menthol-induced fluorescent signal (rat TRPM8 [1]) | % Blockade 50 μM (rat TRPM8 [1]) | % Blockade at 10 μM (rat TRPM8 [2]) | IC50 (rat TRPM8 [2]) | inhibition at 50 µM (hTRPV1) | Effect on resting membrane potential (rat DRG sensory neurons) | Effect on potassium-evoked action potentials (electrogenicity) (rat DRG neurons) | Adverse effects in phase I clinical trials (TRPM8) | IC50 (rat TRPM8 [1]) | Antitumor activity (four tumor cell lines) | Oxaliplatin-induced allodynia [3] | Block of channel activation by menthol (Ca2+ entry assay) (rat TRPM8 [4]) |
| --- | --- | --- | --- | --- | --- | --- | --- | --- | --- | --- | --- | --- | --- | --- |
| C[C@H]1C(=O)N(C[C@@H](Cc2ccccc2)N(Cc2ccccc2)Cc2ccccc2)[C@@]1(Cc1ccccc1)C(=O)OCc1ccccc1 [Compound 16, 4R-Benzyl-1-[(2′R-dibenzylamino-3′-phenyl-)prop-1′-yl]-4-benzyloxicarbonyl-3R-methyl-2-oxoazetidine] | 0.5 ± 4.1% | 87.3 ± 8.1% | completely blocked | 98.5 ± 3.2% | 79.3 ± 2.7% | 0.05 µM | 4.2 ± 3.2% | do not affect the membrane resting potential | do not alter potassium-evoked action potentials; also recorded: did not affected the electrogenicity |  |  |  |  |  |
| C[C@H](c1ccc(F)cc1)N(Cc1cccc(C(=O)O)c1)C(=O)c1cnc2ccccc2c1 [PF-05105679] |  |  |  |  |  |  |  |  |  | several adverse effects, including feeling hot |  |  |  |  |
| C[C@H]1C(=O)N(C[C@H](Cc2ccccc2)N(Cc2ccccc2)Cc2ccccc2)[C@@]1(Cc1ccccc1)C(=O)OCc1ccccc1 [Compound 15, 4R-Benzyl-1-[(2′S-dibenzylamino-3′-phenyl)prop-1′-yl]-4-benzyloxicarbonyl-3R-methyl-2-oxoazetidine] | 2.6 ± 1.9% | 71.1 ± 4.3% |  | 90.3 ± 2.8% |  |  | 5.3 ± 3.4% |  |  |  | 0.7 ± 1.1 µM |  |  |  |
| C[C@@H]1C(=O)N(C[C@H](Cc2ccccc2)NC(=O)OCc2ccccc2)[C@]1(Cc1ccccc1)C(=O)OCc1ccccc1 [Compound 1] |  |  |  |  |  |  |  |  |  |  |  | micromolar potency in four tumor cell lines | significantly reduces the oxaliplatin-induced allodynia | micromolar values |
| C[C@@H]1C(=O)N(C[C@H](Cc2ccccc2)N(Cc2ccccc2)Cc2ccccc2)[C@]1(Cc1ccccc1)C(=O)OCc1ccccc1 [Compound 13, 4S-Benzyl-1-[(2′S-dibenzylamino-3′-phenyl-)prop-1′-yl]-4-benzyloxicarbonyl-3S-methyl-2-oxoazetidine] | 3.7 ± 4.1% | 57.7 ± 7.2% |  | 86.1 ± 5.0% |  |  | 7.9 ± 3.2% |  |  |  | 3.1 ± 1.1 µM |  |  |  |
| C[C@@H]1C(=O)N(C[C@@H](Cc2ccccc2)N(Cc2ccccc2)Cc2ccccc2)[C@]1(Cc1ccccc1)C(=O)OCc1ccccc1 [Compound 14, 4S-Benzyl-1-[(2′R-dibenzylamino-3′-phenyl)prop-1′-yl]-4-benzyloxicarbonyl-3S-methyl-2-oxoazetidine] | 2.4 ± 1.4% | 78.9 ± 1.7% | completely blocked | 87.7 ± 3.1% | 77.2 ± 2.7% | 0.9 ± 1 µM | 2.8 ± 4.1% | do not affect the membrane resting potential | do not alter potassium-evoked action potentials; also recorded: did not affected the electrogenicity |  |  |  |  |  |
